Counter-ions that a name gives are not always drawn.
Experiments:
[1] = Solubility in water: water added by degrees until 0.1 g of compound fully dissolves; conditions: for Water quantity for dissolving 0.1 g solute: 28° C.
e-NOS = e-NOS expression in Wistar rat pulmonary artery (Western blot); format: cell-based; conditions: rat pulmonary artery incubated 2 hours with 0.01 mg/ml (10^-5 M); actin as internal control; FIG. 1
Protocol: The e-NOS expression of dextromethorphan glycyrrhizinate and dimemorfan glycyrrhizinate are carried out via the following procedures.
The blank control group were not added with dextromethorphan glycyrrhizinate or dimemorfan glycyrrhizinate. After incubated for 2 hours, the pulmonary artery were lysed in ice-cold homogenization buffer. The homogenates were centrifuged at 13,000 rpm for 10 minutes at 4° C. The protein concentration was determined by the method of Bradford. Samples were denatured and subjected to sodium dodecylsulfate polyacrylamide gel electrophoresis (SDS-PAGE) using a 7.5% running gel. Protein were transferred to polyvinylidene difluoride (PVDF) membrane, and the PVDF membrane was incubated successively at room temperature with 5% nonfat milk-0.1% Tween-Tris buffered saline for 1 hour, with rabbit antibodies specific for anti-eNOS for 1 hour, and with horseradish peroxidase conjugated anti-rabbit IgG antibodies (HRP-conjugated anti-rabbit IgG Ab) for 1 hour. After each incubation, the membrane was washed extensively with 0.1% Tween-Tris buffered saline. The immunoreactive bands were detected by ECL reagents.
The expressions of actins are also tested at the same time to be the internal control and are depicted in the middle panel of FIG. 1.

[2] = in words; cited from earlier work

Compound | Solubility (28° C.) [1] | Water quantity for dissolving 0.1 g solute [1] | e-NOS expression (e-NOS) | Solubility in water [2]
COc1ccc2c(c1)[C@]13CCCC[C@@H]1[C@H](C2)N(C)CC3 [Dextromethorphan hydrobromide] | 2.5% |  |  | 
Dimemorfan phosphate | 2.5% | 4 mL |  | 
dimemorfan glycyrrhizinate | 0.05% | 200 mL | good e-NOS expression | 
dextromethorphan glycyrrhizinate |  |  | good e-NOS expression | 
COc1ccc2c(c1)[C@]13CCCC[C@@H]1[C@H](C2)N(C)CC3 [dextromethorphan] |  |  |  | water insoluble
